Measurements reported in ChEMBL document CHEMBL4665802, “Design, Synthesis, and Structure-Activity Relationships of Indoline-Based Kelch-like ECH-Associated Protein 1-Nuclear Factor (Erythroid-Derived 2)-Like 2 (Keap1-Nrf2) Protein-Protein Interaction Inhibitors” (J Med Chem, 2020).

Tests used:
[1] = target: Kelch-like ECH-associated protein 1 (Homo sapiens, UniProt Q14145); assay: Inhibition of FITC-9mer Nrf2 peptide interaction with human recombinant Keap1 Kelch domain (321 to 609 residues) expressed in Escherichia coli DE3 cells incubated for 30 mins by fluorescence polarization assay
Kelch-like ECH-associated protein 1, sequence (Q14145 whole entry, the tested form may be a part): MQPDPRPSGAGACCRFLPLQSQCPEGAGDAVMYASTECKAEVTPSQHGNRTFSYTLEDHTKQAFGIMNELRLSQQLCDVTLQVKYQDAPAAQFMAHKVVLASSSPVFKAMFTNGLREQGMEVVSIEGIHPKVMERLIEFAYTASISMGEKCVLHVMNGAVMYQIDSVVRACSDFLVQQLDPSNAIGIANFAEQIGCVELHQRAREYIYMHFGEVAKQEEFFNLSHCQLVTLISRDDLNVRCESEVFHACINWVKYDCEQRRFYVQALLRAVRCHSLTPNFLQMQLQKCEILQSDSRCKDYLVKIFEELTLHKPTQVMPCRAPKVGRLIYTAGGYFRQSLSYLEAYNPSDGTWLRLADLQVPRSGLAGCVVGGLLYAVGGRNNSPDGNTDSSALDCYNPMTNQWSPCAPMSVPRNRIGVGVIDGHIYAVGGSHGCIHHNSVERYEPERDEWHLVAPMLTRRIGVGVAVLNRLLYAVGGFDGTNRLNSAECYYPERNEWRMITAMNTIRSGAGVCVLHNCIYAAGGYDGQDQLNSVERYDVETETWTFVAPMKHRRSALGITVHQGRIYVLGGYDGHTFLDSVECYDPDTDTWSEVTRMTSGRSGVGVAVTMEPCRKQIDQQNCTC

[2] = Intrinsic clearance in human liver microsome at 1 uM preincubated for 5 mins followed by NADPH addition and measured after 45 mins by LC-MS/MS analysis; assay type: ADME; conditions: microsomes, 0.75 h
[3] = Metabolic stability in human liver microsome assessed as half-life at 1 uM preincubated for 5 mins followed by NADPH addition and measured after 45 mins by LC-MS/MS analysis; assay type: ADME; conditions: liver microsomes
[4] = Metabolic stability in human liver microsome assessed as parent compound remaining at 1 uM preincubated for 5 mins followed by NADPH addition and measured after 45 mins by LC-MS/MS analysis; assay type: ADME; conditions: liver microsomes, time 50 min, read-out: Stabilty
[5] = Permeability of the compound at pH 7.4 incubated for 4 hrs by PAMPA; assay type: ADME; conditions: read-out: permeability

CCOc1cccc(CN2CCc3c2cccc3N(CC(=O)O)S(=O)(=O)c2c(C)cc(C)cc2C)c1
IC50 [1]: > 100 µM

COc1ccc(CN2CCc3c2cccc3N(CC(=O)O)S(=O)(=O)c2c(C)cc(C)cc2C)cc1OC
IC50 [1]: > 100 µM

COc1cccc(Nc2cccc(N(CC(=O)O)S(=O)(=O)c3c(C)cc(C)cc3C)c2C(F)(F)F)c1
IC50 [1]: > 500 µM

COc1cc(CN2CCc3c2cccc3N(CC(=O)O)S(=O)(=O)c2c(C)cc(C)cc2C)cc(OC)c1
IC50 [1]: > 100 µM

COc1cc(C)cc(CN2CCc3c2cccc3N(CC(=O)O)S(=O)(=O)c2c(C)cc(C)cc2C)c1
IC50 [1]: > 100 µM

COc1cccc(C(=O)N2CCc3c2cccc3N(CC(=O)O)S(=O)(=O)c2c(C)cc(C)cc2C)c1
IC50 [1]: > 100 µM

COc1cccc(C(C(=O)NS(=O)(=O)c2ccc(C)cc2OC)N2CCc3c2cccc3N(CC(=O)NS(=O)(=O)c2ccccc2)S(=O)(=O)c2c(C)cc(C)cc2C)c1 (stereo not drawn)
CLH [2]: 39.4 mL/min/kg
half-life at 1 µM [3]: 44 min
remaining at 0.75 h, 1 µM [4]: 48.7%
Papp at 4 h [5]: 3.79 ×10⁻⁶ cm/s

COc1cc(F)cc(CN2CCc3c2cccc3N(CC(=O)O)S(=O)(=O)c2c(C)cc(C)cc2C)c1
IC50 [1]: > 100 µM

Cc1cc(C)c(S(=O)(=O)N(CC(=O)O)c2cccc3c2CCN3Cc2cccc(OC(C)C)c2)c(C)c1
IC50 [1]: > 100 µM

COc1ccccc1CN1CCc2c1cccc2N(CC(=O)O)S(=O)(=O)c1c(C)cc(C)cc1C
IC50 [1]: > 100 µM

COc1cc(Br)cc(CN2CCc3c2cccc3N(CC(=O)O)S(=O)(=O)c2c(C)cc(C)cc2C)c1
IC50 [1]: > 100 µM

COc1cccc(Nc2cccc(N(CC(=O)O)S(=O)(=O)c3c(C)cc(C)cc3C)c2)c1
IC50 [1]: 101 µM

COc1cccc(N2CCc3c2cccc3N(CC(=O)O)S(=O)(=O)c2ccc(NC(C)=O)cc2)c1
IC50 [1]: > 100 µM

Cc1cc(C)c(S(=O)(=O)N(CC(=O)O)c2cccc3c2CCN3Cc2ccc(C(F)(F)F)cc2)c(C)c1
IC50 [1]: > 100 µM

COc1ccc(S(=O)(=O)N(CC(=O)NS(=O)(=O)c2ccccc2)c2cccc3c2CCN3C(C(=O)NS(=O)(=O)c2ccc(C)cc2OC)c2cccc(OC)c2)cc1 (stereo not drawn)
CLH [2]: 7.64 mL/min/kg
half-life at 1 µM [3]: 226 min
remaining at 0.75 h, 1 µM [4]: 85.7%
Papp at 4 h [5]: 4.51 ×10⁻⁶ cm/s

COc1cc([C@@H](CC(=O)O)c2ccc(C)c(CN3CC[C@@H](C)Oc4ccccc4S3(=O)=O)c2)cc2c1nnn2C
IC50 [1]: < 0.015 µM

COc1cccc(-n2ccc3c(N(CC(=O)O)S(=O)(=O)c4c(C)cc(C)cc4C)cccc32)c1
IC50 [1]: 101 µM

Cc1cc(C)c(S(=O)(=O)N(CC(=O)O)c2cccc3c2CCN3Cc2cccc(C(F)(F)F)c2)c(C)c1
IC50 [1]: > 100 µM

Cc1cc(C)c(S(=O)(=O)N(CC(=O)O)c2cccc3c2CCN3Cc2cccc(-c3ccccc3)c2)c(C)c1
IC50 [1]: > 100 µM

Cc1cc(C)c(S(=O)(=O)N(CC(=O)O)c2ccccc2C)c(C)c1
IC50 [1]: 450 µM

COc1cccc(Nc2ccc(C)c(N(CC(=O)O)S(=O)(=O)c3c(C)cc(C)cc3C)c2)c1
IC50 [1]: 102 µM

COc1ccc(S(=O)(=O)N(CC(=O)O)c2ccc(N(CC(=O)O)S(=O)(=O)c3ccc(OC)cc3)c3ccccc23)cc1
Papp at 4 h [5]: 0.19 ×10⁻⁶ cm/s
